Experimental data as given in ChEMBL document CHEMBL5303765, “Data for DCP probe BAY-7081” (2023).

How the values were obtained:
[1] = molecular target: 5-hydroxytryptamine receptor 1D (Homo sapiens) (UniProt P28221); settings: Compound concentration 10.0 uM
Peregrin (Homo sapiens) = molecular target: T1, Peregrin (Homo sapiens) (UniProt P55201); assay: BRPF1 SGC Tm panel (DSF); settings: for ΔTm: Compound concentration 10.0 uM
T1 sequence (whole entry): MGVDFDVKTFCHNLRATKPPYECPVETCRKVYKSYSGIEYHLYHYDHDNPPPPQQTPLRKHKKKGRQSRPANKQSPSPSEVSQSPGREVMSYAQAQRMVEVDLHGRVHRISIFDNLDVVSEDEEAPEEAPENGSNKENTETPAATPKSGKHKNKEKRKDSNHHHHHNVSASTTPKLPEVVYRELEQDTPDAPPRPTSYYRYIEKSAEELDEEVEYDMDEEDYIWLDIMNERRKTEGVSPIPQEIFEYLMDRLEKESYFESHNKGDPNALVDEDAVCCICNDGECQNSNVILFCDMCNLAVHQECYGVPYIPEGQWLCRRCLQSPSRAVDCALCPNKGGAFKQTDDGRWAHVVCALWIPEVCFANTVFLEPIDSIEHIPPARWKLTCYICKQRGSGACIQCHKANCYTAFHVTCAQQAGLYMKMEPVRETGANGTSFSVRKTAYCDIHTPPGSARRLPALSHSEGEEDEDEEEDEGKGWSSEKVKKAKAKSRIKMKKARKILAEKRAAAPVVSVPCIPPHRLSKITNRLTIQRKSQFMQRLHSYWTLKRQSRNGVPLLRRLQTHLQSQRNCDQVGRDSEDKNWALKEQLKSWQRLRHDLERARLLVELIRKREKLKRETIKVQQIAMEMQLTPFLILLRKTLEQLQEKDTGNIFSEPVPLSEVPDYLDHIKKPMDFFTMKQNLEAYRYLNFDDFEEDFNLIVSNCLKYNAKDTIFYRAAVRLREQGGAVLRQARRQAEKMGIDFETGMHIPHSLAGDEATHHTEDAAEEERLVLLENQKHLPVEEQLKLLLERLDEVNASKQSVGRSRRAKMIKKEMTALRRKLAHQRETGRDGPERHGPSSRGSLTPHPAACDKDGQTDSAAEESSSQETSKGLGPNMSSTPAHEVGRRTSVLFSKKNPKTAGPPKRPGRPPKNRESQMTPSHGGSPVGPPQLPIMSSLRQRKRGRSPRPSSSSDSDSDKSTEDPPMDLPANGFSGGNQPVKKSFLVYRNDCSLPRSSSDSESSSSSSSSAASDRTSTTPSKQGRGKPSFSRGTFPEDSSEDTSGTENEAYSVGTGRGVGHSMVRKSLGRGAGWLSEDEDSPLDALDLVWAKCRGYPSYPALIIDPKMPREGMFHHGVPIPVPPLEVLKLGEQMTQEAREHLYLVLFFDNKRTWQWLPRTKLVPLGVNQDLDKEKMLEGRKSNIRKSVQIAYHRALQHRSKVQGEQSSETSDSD

[2] = molecular target: Serine/threonine-protein kinase WNK1 (Homo sapiens) (UniProt Q9H4A3); assay: WNK1 SGC Tm panel (DSF); settings: for ΔTm: Compound concentration 10.0 uM
[3] = molecular target: Calcium/calmodulin-dependent protein kinase type II subunit beta (Homo sapiens) (UniProt Q13554); assay: CAMK2B SGC Tm panel (DSF); settings: for ΔTm: Compound concentration 10.0 uM
[4] = molecular target: Cyclin-dependent kinase 16 (Homo sapiens) (UniProt Q00536); assay: PCTK1 SGC Tm panel (DSF); settings: for ΔTm: Compound concentration 10.0 uM
[5] = molecular target: Sodium-dependent serotonin transporter (Homo sapiens) (UniProt P31645); settings: Compound concentration 10.0 uM
[6] = molecular target: T2, Serine/threonine-protein kinase DCLK1 (Homo sapiens) (UniProt O15075); assay: DCAMKL1 SGC Tm panel (DSF); settings: for ΔTm: Compound concentration 10.0 uM
T2 sequence (whole entry): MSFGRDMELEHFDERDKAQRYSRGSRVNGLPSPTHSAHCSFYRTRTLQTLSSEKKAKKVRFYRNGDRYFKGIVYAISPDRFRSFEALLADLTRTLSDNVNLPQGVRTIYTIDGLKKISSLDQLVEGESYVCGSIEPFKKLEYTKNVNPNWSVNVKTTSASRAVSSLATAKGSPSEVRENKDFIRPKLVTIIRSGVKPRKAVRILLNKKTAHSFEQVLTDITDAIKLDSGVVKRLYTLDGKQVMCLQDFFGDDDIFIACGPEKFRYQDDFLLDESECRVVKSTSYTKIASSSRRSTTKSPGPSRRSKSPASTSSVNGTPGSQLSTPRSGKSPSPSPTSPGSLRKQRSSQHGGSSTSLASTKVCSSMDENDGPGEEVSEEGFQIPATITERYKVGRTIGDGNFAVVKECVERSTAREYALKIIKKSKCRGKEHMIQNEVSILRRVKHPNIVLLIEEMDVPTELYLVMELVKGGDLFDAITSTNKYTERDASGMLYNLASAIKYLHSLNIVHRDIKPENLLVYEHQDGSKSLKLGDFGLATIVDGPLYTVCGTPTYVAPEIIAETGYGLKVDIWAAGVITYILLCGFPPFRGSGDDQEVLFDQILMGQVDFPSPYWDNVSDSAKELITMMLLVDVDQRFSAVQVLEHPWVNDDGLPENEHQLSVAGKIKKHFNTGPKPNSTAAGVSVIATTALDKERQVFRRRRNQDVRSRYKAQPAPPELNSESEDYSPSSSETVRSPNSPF

[7] = molecular target: Casein kinase I isoform epsilon (Homo sapiens) (UniProt P49674); assay: CSNK1E SGC Tm panel (DSF); settings: for ΔTm: Compound concentration 10.0 uM
[8] = molecular target: MAP kinase-activated protein kinase 2 (Homo sapiens) (UniProt P49137); assay: MAPKAPK2 SGC Tm panel (DSF); settings: for ΔTm: Compound concentration 10.0 uM
[9] = molecular target: Proto-oncogene tyrosine-protein kinase Src (Homo sapiens) (UniProt P12931); assay: SRC SGC Tm panel (DSF); settings: for ΔTm: Compound concentration 10.0 uM
[10] = molecular target: Death-associated protein kinase 3 (Homo sapiens) (UniProt O43293); assay: DAPK3 SGC Tm panel (DSF); settings: for ΔTm: Compound concentration 10.0 uM
[11] = molecular target: BMP-2-inducible protein kinase (Homo sapiens) (UniProt Q9NSY1); assay: BMP2K SGC Tm panel (DSF); settings: for ΔTm: Compound concentration 10.0 uM
Chain of BMP-2-inducible protein kinase (Homo sapiens) (Q9NSY1 whole entry, looked up): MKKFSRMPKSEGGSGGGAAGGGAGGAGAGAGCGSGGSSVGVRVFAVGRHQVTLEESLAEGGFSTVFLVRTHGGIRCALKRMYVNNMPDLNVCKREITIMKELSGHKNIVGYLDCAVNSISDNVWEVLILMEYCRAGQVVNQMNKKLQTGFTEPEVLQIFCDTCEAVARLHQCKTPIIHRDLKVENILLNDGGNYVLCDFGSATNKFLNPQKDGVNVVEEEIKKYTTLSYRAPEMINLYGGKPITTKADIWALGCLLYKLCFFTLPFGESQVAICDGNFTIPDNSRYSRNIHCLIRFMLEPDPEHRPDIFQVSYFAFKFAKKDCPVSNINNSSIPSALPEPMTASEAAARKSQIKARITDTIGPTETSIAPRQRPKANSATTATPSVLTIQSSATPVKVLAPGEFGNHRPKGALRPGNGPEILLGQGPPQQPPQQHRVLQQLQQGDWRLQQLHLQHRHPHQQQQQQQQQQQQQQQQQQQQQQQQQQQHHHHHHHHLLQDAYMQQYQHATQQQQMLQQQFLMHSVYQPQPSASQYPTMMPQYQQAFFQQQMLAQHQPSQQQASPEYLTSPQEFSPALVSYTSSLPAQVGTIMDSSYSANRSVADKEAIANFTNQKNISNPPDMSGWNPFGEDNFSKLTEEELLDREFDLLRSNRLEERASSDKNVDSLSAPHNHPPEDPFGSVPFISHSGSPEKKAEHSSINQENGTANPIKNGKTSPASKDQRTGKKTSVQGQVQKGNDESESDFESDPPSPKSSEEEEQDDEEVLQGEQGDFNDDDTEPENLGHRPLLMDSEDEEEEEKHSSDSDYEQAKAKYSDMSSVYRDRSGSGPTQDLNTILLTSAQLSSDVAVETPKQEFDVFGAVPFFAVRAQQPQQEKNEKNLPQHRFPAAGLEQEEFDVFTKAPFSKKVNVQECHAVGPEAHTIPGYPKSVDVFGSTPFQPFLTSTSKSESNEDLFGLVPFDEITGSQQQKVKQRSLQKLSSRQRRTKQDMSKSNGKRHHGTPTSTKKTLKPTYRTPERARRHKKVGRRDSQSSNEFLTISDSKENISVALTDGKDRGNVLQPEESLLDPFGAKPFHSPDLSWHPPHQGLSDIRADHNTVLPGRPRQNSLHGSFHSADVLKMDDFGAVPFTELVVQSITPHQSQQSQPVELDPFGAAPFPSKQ

Chain of Proto-oncogene tyrosine-protein kinase Src (Homo sapiens) (P12931 2-536 limits assumed): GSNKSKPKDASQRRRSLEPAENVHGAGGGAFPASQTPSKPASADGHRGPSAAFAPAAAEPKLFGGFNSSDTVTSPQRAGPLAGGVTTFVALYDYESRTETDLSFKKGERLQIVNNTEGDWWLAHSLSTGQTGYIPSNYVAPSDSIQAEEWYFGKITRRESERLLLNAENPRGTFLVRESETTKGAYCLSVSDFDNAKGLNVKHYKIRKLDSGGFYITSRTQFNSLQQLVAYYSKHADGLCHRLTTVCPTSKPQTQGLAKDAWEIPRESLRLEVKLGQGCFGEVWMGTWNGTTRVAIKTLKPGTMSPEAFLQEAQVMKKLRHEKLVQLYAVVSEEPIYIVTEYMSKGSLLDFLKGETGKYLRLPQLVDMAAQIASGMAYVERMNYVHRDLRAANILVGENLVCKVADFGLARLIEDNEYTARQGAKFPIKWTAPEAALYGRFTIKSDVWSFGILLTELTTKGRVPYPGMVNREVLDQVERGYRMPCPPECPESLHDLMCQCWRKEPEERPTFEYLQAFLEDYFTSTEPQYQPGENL
Chain of Serine/threonine-protein kinase WNK1 (Homo sapiens) (Q9H4A3 whole entry, looked up): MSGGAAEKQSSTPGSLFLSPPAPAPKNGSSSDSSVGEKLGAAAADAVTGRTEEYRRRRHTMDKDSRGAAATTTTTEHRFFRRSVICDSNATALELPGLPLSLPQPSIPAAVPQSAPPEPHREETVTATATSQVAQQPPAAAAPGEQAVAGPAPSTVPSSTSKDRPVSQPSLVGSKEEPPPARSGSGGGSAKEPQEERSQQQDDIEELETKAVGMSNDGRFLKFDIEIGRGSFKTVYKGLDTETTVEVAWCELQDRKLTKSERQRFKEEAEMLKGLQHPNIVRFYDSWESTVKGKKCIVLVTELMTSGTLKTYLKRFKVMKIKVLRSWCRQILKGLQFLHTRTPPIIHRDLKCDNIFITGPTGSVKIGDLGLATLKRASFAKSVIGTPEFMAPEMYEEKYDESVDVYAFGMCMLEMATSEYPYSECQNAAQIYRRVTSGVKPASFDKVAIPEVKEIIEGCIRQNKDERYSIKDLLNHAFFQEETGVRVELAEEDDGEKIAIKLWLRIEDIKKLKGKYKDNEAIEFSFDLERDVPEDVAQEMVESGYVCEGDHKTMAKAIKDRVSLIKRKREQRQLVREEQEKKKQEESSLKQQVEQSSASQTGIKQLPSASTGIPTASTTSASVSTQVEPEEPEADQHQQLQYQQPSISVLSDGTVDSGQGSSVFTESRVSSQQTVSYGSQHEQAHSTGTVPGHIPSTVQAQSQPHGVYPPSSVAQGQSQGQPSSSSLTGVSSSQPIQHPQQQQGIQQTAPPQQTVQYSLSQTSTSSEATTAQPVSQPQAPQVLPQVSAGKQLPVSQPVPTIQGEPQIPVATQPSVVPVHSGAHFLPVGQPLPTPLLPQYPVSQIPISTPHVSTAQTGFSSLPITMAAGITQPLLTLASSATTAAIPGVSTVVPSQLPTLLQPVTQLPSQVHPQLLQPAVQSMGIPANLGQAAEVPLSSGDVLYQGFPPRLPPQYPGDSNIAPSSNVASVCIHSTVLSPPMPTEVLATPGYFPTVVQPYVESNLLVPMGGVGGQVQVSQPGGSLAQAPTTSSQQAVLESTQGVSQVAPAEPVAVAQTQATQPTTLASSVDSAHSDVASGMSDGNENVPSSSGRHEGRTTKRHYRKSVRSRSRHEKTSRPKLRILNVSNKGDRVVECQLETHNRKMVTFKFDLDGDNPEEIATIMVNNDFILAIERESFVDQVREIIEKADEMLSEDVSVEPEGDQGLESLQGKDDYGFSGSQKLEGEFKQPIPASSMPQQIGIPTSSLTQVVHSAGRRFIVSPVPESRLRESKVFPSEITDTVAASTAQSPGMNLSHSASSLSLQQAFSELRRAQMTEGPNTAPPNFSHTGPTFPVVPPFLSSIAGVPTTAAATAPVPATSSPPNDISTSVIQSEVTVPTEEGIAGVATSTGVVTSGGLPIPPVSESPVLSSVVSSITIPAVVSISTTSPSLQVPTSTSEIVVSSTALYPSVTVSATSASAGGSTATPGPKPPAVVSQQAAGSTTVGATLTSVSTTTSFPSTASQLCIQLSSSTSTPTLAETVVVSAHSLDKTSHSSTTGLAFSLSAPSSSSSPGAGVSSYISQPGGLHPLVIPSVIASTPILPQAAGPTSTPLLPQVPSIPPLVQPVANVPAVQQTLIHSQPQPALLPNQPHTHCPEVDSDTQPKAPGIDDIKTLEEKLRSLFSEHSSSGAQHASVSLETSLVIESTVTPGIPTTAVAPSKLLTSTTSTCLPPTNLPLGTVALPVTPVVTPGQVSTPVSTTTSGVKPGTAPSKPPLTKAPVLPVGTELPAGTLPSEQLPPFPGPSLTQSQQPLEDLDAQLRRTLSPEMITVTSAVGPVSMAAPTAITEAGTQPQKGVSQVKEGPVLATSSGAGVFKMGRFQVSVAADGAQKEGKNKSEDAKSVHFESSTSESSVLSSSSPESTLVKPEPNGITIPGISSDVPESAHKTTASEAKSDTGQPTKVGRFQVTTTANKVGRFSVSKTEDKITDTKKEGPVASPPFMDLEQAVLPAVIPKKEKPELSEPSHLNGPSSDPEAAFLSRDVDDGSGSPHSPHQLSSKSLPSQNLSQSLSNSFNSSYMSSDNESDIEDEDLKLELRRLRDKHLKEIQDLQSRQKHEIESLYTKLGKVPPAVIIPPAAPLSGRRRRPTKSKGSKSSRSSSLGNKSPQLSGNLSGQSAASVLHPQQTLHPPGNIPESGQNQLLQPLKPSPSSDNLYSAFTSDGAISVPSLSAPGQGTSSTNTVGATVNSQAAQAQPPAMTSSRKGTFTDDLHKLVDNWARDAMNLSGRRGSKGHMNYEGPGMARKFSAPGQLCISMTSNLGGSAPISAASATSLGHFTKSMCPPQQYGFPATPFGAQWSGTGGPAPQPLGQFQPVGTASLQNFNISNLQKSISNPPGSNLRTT
Chain of Death-associated protein kinase 3 (Homo sapiens) (O43293 whole entry, looked up): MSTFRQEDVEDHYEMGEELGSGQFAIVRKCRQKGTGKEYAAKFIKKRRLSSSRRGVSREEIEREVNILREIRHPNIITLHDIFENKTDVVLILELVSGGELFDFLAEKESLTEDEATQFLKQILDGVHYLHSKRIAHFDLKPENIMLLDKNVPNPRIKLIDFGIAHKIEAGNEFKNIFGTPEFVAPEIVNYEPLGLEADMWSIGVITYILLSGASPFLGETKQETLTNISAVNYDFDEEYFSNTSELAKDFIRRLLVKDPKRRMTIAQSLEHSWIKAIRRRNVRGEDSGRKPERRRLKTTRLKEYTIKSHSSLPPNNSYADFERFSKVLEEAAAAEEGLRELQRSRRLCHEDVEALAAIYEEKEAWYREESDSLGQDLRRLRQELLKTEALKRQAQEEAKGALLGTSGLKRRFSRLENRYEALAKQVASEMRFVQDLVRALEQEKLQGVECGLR
Chain of MAP kinase-activated protein kinase 2 (Homo sapiens) (P49137 whole entry, looked up): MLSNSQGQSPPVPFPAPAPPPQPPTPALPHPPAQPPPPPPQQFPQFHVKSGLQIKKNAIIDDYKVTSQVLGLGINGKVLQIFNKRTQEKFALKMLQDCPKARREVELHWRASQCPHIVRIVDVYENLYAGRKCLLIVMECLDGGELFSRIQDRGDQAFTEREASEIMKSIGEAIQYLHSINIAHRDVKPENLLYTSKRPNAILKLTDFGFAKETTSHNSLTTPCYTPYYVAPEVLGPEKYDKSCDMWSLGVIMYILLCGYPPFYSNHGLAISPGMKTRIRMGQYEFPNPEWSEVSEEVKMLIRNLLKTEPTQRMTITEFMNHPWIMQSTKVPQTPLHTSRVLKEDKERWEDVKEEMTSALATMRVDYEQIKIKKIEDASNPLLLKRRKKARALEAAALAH

| Structure (SMILES) | inhibition [1] [%] | delta Tm Staurosporine positive control (Peregrin (Homo sapiens)) | ΔTm (Peregrin (Homo sapiens)) | delta Tm Staurosporine positive control [2] | ΔTm [2] | delta Tm Staurosporine positive control [3] | ΔTm [3] | delta Tm Staurosporine positive control [4] | ΔTm [4] | inhibition [5] [%] | delta Tm Staurosporine positive control [6] | ΔTm [6] | delta Tm Staurosporine positive control [7] | ΔTm [7] | delta Tm Staurosporine positive control [8] | ΔTm [8] | delta Tm Staurosporine positive control [9] | ΔTm [9] | delta Tm Staurosporine positive control [10] | ΔTm [10] | other results |
| --- | --- | --- | --- | --- | --- | --- | --- | --- | --- | --- | --- | --- | --- | --- | --- | --- | --- | --- | --- | --- | --- |
| CCC[C@@H]1CNCc2c1[nH]c(=O)c(C#N)c2N1CCC2(CC1)CC2 | 35 | -0.107 | -0.426 | 2.2 | -0.301 | 13.7 | -0.647 | 11.2 | -0.4 | -1.15 | 12.7 | -1.16 | 3.12 | -0.0146 | 3.96 | -0.281 | 7.39 | -0.0953 | 16.6 | 0.29 | delta Tm Staurosporine positive control [11]: 18.7; ΔTm [11]: -0.192 |
| CCC[C@H]1CNCc2c1[nH]c(=O)c(C#N)c2N1CCC2(CC1)CC2 | 25 | -0.107 | -0.754 | 2.2 | -0.456 | 13.7 | -0.51 | 11.2 | -0.418 | 6.23 | 12.7 | -1.21 | 3.12 | -0.118 | 3.96 | -0.289 | 7.39 | -0.143 | 16.6 | 0.222 | delta Tm Staurosporine positive control [11]: 18.7; ΔTm [11]: -0.103 |
